From article PMC9975351 (Frontiers in Pharmacology, 2023) come the findings set out here.

Data set [1] relates to other CYP isoforms (CYP1A2, 2A6, 2B6, 2C8, 2C9, 2E1). Put plainly: Reaction phenotyping with other recombinant CYP isoforms. It is filed as in vitro ADME, human. As to conditions: 1 µM, 50 pmol/mL of each other recombinant CYP isoform, NADPH, 60 min. The method, then: Reactions were conducted in triplicate using 0.1 M PPB (pH 7.4) in eight-well tube strips in an 8 × 12 rack. […] The mixture was pre-incubated at 37°C with shaking at approximately 100 rpm for 5 min. Reactions were initiated by the addition of the NADPH-regenerating system and quenched with 200 µL ice-cold acetonitrile containing 50 nM CBZ. The samples were centrifuged at 1,000 × g and 4°C for 20 min, and the supernatants were subjected to LC-QTOF HRMS. […] The reaction was incubated, initiated, terminated, centrifuged then analyzed using the same method described above.
Reaction phenotyping is the identification of isoforms involved in drug metabolism and is important for the decipherment of drug biotransformation pathways and understanding of possible drug-drug interactions. M6, M7, and M8 were also detected in recombinant CYP incubations.

A further data set in a line: in vitro. It is filed as in vitro ADME, human. The method, then:
(§1) Metabolic stability of GRL 0617 and formation of M1 and M3 were evaluated using Silensome control, Silensome CYP2D6 and Silensome CYP3A4 incubated with 1 or 10 µM GRL 0617 in the presence of NADPH. Other metabolites were detected less than 1% of parent. […] CYP2D6 played an exclusive role in the formation of M2, but the reactions were not saturated in the concentration range used in this study and thus, the calculated Kcat, and Km were out of the experiment condition.
(§2) In addition, the contribution of specific isoform using Silensomes were evaluated, and calculated parameters were shown in Supplemental Figure S4 and Table 4. […] The contribution of specific CYP 3A4 or CYP2D6 was calculated to be 79.6% or 21.8%, respectively, using equation as equation below. Calculated % CYP isoform contribution = CLintcontrol−ClintINH ⁄ CLintcontrol ([Bohnert et al., 2016]).
(§3) incubated in Silensome control, Silensome CYP2D6, and Silensome CYP3A4 with NADPH for 0, 10,
(§4) 15, 30, 45, 60, or 120 min. The remaining percentages of GRL 0617 are expressed as mean ± SD (n=3).
(§5) (1 picture or pasted object on this page, not shown here)

The test system of the next data set is CYP2D6. Put plainly: Metabolic stability in Silensome CYP2D6 (CYP2D6 contribution). As to conditions: human. It counts as in vitro ADME, human. The procedure:
as §1, §2, §3, §4, §5

The subject of another data set is Silensome CYP2D6. The description is as above. As to conditions: (CLint control − CLint INH)/CLint control. It counts as in vitro ADME, human. The procedure: as §1, §2, §3, §4, §5
The subject of the next data set is CYP3A4/3A5. The experiment in a line: Metabolic stability in Silensome CYP3A4 (CYP3A4/3A5 contribution). It is filed as in vitro ADME, human. Particulars: human. The procedure:
as §1, §2
(§6) CYP3A4/5 metabolizes various chemicals composed of large, lipophilic molecules with diverse structures, and >50% of all prescribed drugs undergo CYP3A4 metabolism ([Zanger and Schwab, 2013]). CYP3A4-related drug interaction studies are critical for the prediction of drug–drug interactions in the clinic ([Prueksaritanont et al., 2013]). […] Thus, Silensome 3A4 represented contribution of both CYP3A4 and CYP3A5, compared with control Silensome. CYP3A5 expression in the liver differs between Africans/African Americans and Caucasians. […] CYP2D6 is a highly polymorphic gene involved in drug metabolism ([Ingelman-Sundberg et al., 2007]). […] Indeed, CYP2D6 metabolized the naphthalene side ring through hydroxylation, which is not linked to M1–M3 dehydration.
as §3, §4, §5

For the next data set, the system named is Silensome CYP3A4/3A5. The description is as above. It counts as in vitro ADME, human. As to conditions: (CLint control − CLint INH)/CLint control. The method, then:
as §1, §2, §6, §3, §4, §5

The next data set has as its target T1, CYP2A6 (Homo sapiens, UniProt P11509).
T1 sequence (P11509 1-494): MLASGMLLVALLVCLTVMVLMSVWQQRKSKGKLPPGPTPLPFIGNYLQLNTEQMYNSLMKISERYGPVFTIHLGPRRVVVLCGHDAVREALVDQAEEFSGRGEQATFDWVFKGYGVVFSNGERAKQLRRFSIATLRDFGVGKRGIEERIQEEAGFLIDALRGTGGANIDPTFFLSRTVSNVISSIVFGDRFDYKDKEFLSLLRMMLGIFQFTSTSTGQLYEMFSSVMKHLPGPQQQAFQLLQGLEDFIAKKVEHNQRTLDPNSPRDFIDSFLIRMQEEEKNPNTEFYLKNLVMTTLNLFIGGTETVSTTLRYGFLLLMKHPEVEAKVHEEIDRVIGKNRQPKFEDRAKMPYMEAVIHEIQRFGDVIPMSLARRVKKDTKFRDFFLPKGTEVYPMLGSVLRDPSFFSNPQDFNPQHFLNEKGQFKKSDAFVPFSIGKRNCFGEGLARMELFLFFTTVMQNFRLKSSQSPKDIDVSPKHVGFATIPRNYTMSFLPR
Put plainly: CYP cocktail inhibition assay in pooled HLMs, CYP2A6. As to conditions: substrate cocktail. The method, then: (§7) The drug–drug interaction potential was evaluated using a CYP cocktail assay that involved microsomal incubation and NADPH, as described elsewhere ([Lee et al., 2012]). […] The first reactions were initiated by NADPH addition, and each mixture was incubated in a shaking water bath at 37°C for 30 min. The final incubation was performed for 10 min with a total volume of 200 µL by adding substrates (tolbutamide (set B) as a CYP2C9 selective substrate, midazolam (set A) and testosterone (set B) as CYP3A4 selective substrates) and NADPH. The reaction was stopped and quenched by adding 200 µL of ice-cold acetonitrile containing 50 nM CBZ as internal standard, then centrifuged at 3,000 x g for 20 min. The supernatants were injected in LC-QTOF system. IC50 shift values were calculated as the ratio of the IC50 value obtained after pre-incubation without NADPH divided by the IC50 value obtained after 30 min incubation with NADPH.
(§8) The LC-QTOF system consisted of an Exion AD LC device (AB Sciex, Framingham, MA, United States) and a TripleTOF 6,600 + system (AB Sciex) equipped with an IonDrive Turbo V source operated in positive TOF information-dependent acquisition (IDA) MS2 scan mode. The TOF scan dwell time was 50 ms, and the 20 × IDA MS2 scan time was acquired with a 30-ms dwell time. […]

The next data set has as its target CYP2E1 (Homo sapiens, UniProt P05181). Put plainly: CYP cocktail inhibition assay in pooled HLMs, CYP2E1. Particulars: substrate cocktail. The method, then:
as §7, §8

One may read the half-life as the time needed for the level to fall by half in the phase considered. A low value points to fast loss.

Some results are limits rather than exact numbers.

CYP2E1, sequence (P05181 whole entry): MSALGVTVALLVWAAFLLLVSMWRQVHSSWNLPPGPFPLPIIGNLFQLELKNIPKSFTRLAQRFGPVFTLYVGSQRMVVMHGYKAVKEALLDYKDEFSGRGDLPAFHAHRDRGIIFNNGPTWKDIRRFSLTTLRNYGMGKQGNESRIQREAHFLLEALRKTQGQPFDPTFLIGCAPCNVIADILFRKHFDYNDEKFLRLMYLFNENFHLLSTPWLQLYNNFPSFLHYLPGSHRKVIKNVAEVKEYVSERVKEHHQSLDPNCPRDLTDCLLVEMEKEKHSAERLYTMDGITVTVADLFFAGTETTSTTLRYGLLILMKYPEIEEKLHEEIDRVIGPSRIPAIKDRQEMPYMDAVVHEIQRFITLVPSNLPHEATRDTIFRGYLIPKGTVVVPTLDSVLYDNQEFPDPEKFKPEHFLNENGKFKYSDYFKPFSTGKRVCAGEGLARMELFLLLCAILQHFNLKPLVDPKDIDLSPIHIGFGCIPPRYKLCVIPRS

For `Cc1ccc(N)cc1C(=O)N[C@H](C)c1cccc2ccccc12` [GRL0617, 5-amino-2-methyl-N-[(1R)-1-(1-naphthalenyl)ethyl]benzamide], the “Reduction of GRL0617 level” value in data set [1] is recorded as less than 10%. In “in vitro” (Silensome control (reference)), this molecule came in with a Contribution of 100%. The half-life at 1 µM in “in vitro” (human, microsomes) is 17.4 min; in the data set with CYP2D6 it was 22.3 min; in the data set on CYP3A4/3A5, 85.1 min. Further, the microsomal CLint in the data set “in vitro” (human, microsomes, Silensome control with NADPH, read-out: Intrinsic clearance (in vitro) Clint) was 39.8 µL/min/mg. Besides, the microsomal CLint at 1 µM was 31.2 µL/min/mg in the data set with CYP2D6 (Silensome CYP2D6 with NADPH, read-out: Intrinsic clearance (in vitro) Clint) and 8.14 µL/min/mg with CYP3A4/3A5 (Silensome CYP3A4/3A5 with NADPH, read-out: Intrinsic clearance (in vitro) Clint). Further, in the data set with Silensome CYP2D6, the “Contribution of CYP2D6 to metabolism” value amounted to 21.8%. Moreover, the “Contribution of CYP3A4 (CYP3A4/3A5) to metabolism” value in the data set with Silensome CYP3A4/3A5 came out at 79.6%. For the same molecule, the “Concentrations at which CYP2A6 was inhibited” value on CYP2A6 was not below 50 µM. Also, on CYP2E1, the “Concentrations at which CYP2E1 was inhibited” value was not below 50 µM.
